Holding throughout (test): ITC
Holding throughout (format): binding

Test [1] has as its target T1, PaKPR2 (Pseudomonas aeruginosa, UniProt A0A0H2Z9K5).
T1 sequence (A0A0H2Z9K5 1-315): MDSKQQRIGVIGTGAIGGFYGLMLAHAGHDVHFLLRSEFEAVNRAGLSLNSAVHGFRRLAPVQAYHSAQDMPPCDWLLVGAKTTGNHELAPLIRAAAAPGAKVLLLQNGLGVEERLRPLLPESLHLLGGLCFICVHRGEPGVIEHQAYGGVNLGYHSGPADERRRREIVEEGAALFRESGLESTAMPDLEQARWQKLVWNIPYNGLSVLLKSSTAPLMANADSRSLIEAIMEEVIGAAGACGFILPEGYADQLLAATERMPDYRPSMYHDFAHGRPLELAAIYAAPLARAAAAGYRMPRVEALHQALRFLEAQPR

In test [2] the target is T1, PaKPR2. This is another data set of the same source.
The target of test [3] is T1, PaKPR2. This is another data set of the same source.

Read-outs that look alike come from different tables or passages of the source.

Consider 8 molecules from paper doi:10.1101/2024.01.05.573888v1 (biorxiv, 2024).

Usually Kd stands for the concentration at which binding is half-saturated. High values mean weaker binding, low ones tighter binding.

Turning to `O=C(O)C(=O)c1ccco1` [2-Furyl glyoxylate], the Kd at PaKPR2 [1] is 0.392 µM.
On to `O=C(O)C(=O)c1cccs1`, for which the Kd on PaKPR2 [1] was 1.34 µM.
The same measure, in the same setting: the same measure for `O=C(O)C(=O)CCc1ccccc1` [2-oxo-4-phenylbutanoic acid]: 9.09 µM.
On PaKPR2 [2], `NC(=O)C1=CN([C@@H]2O[C@H](COP(=O)(O)OP(=O)(O)OC[C@H]3O[C@@H](n4cnc5c(N)ncnc54)[C@H](OP(=O)(O)O)[C@@H]3O)[C@@H](O)[C@H]2O)C=CC1` [NADPH] returned a Kd of 7.68 µM.
Regarding `CC[C@H](C)C(=O)C(=O)O` [3methyl 2 ketopentanoate], at PaKPR2 [2], binding was put at a Kd of 11.2 µM.
`CC(C)CC(=O)C(=O)O` [2-ketoisocaproate] returned a Kd on PaKPR2 [3] of 3.05 µM.
Consider `O=C(O)C(=O)c1ccccc1` [Phenyl glyoxylate], for which binding at PaKPR2 [1] was put at a Kd of 3.53 µM.
Same read-out and setting: next, `NC(=O)C1=CN([C@@H]2O[C@H](COP(=O)(O)OP(=O)(O)OC[C@H]3O[C@@H](n4cnc5c(N)ncnc54)[C@H](O)[C@@H]3O)[C@@H](O)[C@H]2O)C=CC1` [NADH]: 98 µM.
